In US8906945B2 (priority 2009, dated 2014):
Entries after “also recorded” stand apart in the source; their conditions may differ. Like-named read-outs stand apart in the source and are kept apart here.

Experiments:
[1] = test system: T3SS-mediated secretion of ExoS′-βLA fusion protein from P. aeruginosa strain MDM973; experiment: microbe, parasite or virus in culture; type: cell-based, Pseudomonas aeruginosa; conditions: for IC50: Pseudomonas aeruginosa
[2] = test system: P. aeruginosa T3SS (exoT-luxCDABE reporter strain MDM852); type: cell-based, Pseudomonas aeruginosa; conditions: for Serum Effect: % inhibition of exoT-lux RLU in the absence of serum/% inhibition in the presence of 10% fetal calf serum; for Serum Effect / RLU Selectivity: both at 50 μM compound; for RLU Selectivity: % inhibition of exoT-lux RLU/% inhibition of lac-lux RLU
[3] = test system: T3SS-mediated secretion of YopE-βLA fusion protein from Y. pestis strain JG153/pMM85; experiment: microbe, parasite or virus in culture; type: cell-based; conditions: Yersinia pestis
[4] = test system: Chlamydia trachomatis L2 in Hep-2 cells; experiment: Chlamydia trachomatis growth inhibition assay; type: cell-based
Procedure: Inhibition of the growth of Chlamydia trachomatis L2 strain by compounds was measured in 24-well plates essentially according to the method of Wolf et al. (59). Confluent monolayer Hep-2 cells were infected with L2 at an MOI of 0.5 and treated with compounds at indicated concentrations for 48 h. Then cultures were collected and sonicated. Entire lysates were used for counting inclusion forming units (IFUs) as a measurement of production of Chlamydia progeny elementary bodies (EBs) by re-plating onto fresh HeLa monolayers. An uninhibited control (DMSO only) and a complete inhibition control (chloramphenicol, 200 μg/ml) were included. Experiments were done in triplicate.

P. aeruginosa = experiment: Minimum inhibitory concentration (broth microdilution); conditions: Pseudomonas aeruginosa, read-out: MIC vs. P. aeruginosa
[5] = test system: HeLa cell internalization of P. aeruginosa; experiment: Gentamicin protection assay of bacterial internalization; conditions: 50 μM, ExoT-producing P. aeruginosa, MOI 10
[6] = test system: ExoU translocation from P. aeruginosa strain PAKΔSTYexoU into CHO cells; experiment: Inhibition of P. aeruginosa ExoU-dependent CHO cell killing (LDH release); conditions: ExoU-secreting P. aeruginosa, MOI 5
in vitro = conditions: human
HeLa cells = conditions: ratio of HeLa CC50 vs ExoS′-βLA IC50
[7] = 50 μM added after 2.5 hours of T3SS induction
[8] = read-out: ExoS′-βLA IC50, Table 3, secretion from P. aeruginosa strain MDM973 reduced by 50%
[9] = read-out: IC50 (μM) (ExoS′-βLA assay), Table 4
[10] = read-out: IC50 in the ExoS′-βLA secretion assay
[11] = CC50 (cytotoxicity, HeLa), absence of serum

Compound | IC50 [1, 8] [µM] | Serum Effect [2] | IC50 ([3]; read-out: yopE-βLA IC50) [µM] | MIC (P. aeruginosa) [µM] | rescue of CHO cells from ExoU cytotoxicity (in words) [6] | CC50 (in vitro; HeLa CC50) [µM] | RLU Selectivity [2] | CC50/IC50 (HeLa cells) | also measured
CC(Oc1ccc(Cl)cc1Cl)C(=O)NCc1ccc2c(c1)OCO2 (racemic) [Compound 1, N-(benzo[d][1,3]dioxol-5-ylmethyl)-2-(2,4-dichlorophenoxy)propanamide] | 12.5 | 3.7 | 22 | > 100 | – | – | – | – | time to 50% inhibition of ExoS′-βLA secretion [1, 7]: ≤ 15 min; time to 100% inhibition of ExoS′-βLA secretion [1, 7]: ≤ 45 min; IC50 [1, 9]: 10 µM; potency when administered during or after the 2.5 hour EGTA induction of T3SS ([1]; unpublished observations): equally potently; z-score in the high throughput screen ([2]; strain MDM852, RLU at 200 minutes): 10; IC50 ([3]; read-out: IC50 of YopE-βLA secretion from Y. pestis strain JG153): ~38 µM; reduction of growth of C. trachomatis L2 in Hep-2 cells ([4]; 50 μM, MOI 0.5, listed as MBX 1641): significantly reduced; also recorded: inhibits the growth; concentration dependence of effect on C. trachomatis growth in Hep-2 cells ([4]; FIG. 3D): concentration-dependent effect; stimulation of internalization of bacterial cells by HeLa cells [5]: over 11 fold
CC(Oc1ccc(Cl)cc1Cl)C(=O)NCc1ccco1 (racemic) [compound 5685325, 2-(2,4-dichlorophenoxy)-N-(2-furylmethyl)propanamide] | – | – | – | – | rescued CHO cells | – | – | – | IC50 [1, 9]: 25 µM
CC(Oc1ccc(Cl)cc1Cl)C(=O)NCc1ccc(F)cc1 (racemic) [compound 6380194, 2-(2,4-dichlorophenoxy)-N-(4-fluorobenzyl)propanamide] | – | – | – | – | rescued CHO cells | – | – | – | IC50 [1, 9]: 9 µM
O=C(CC1Sc2ncnn2C1=O)Nc1ccccc1 (stereo not drawn) [Compound 2, 2-(6-oxo-5,6-dihydrothiazolo[3,2-b][1,2,4]triazol-5-yl)-N-phenylacetamide] | 12 | 2 | 6.1 | – | – | 37 | 2.6 | 3.1 | –
CCN1CCOC(CC(=O)Nc2ccc3c(c2)OCCO3)C1=O (stereo not drawn) [Compound 3, N-(2,3-dihydrobenzo[b][1,4]dioxin-6-yl)-2-(4-ethyl-3-oxomorpholin-2-yl)acetamide] | 20 | 4.8 | 16 | > 100 | failed to inhibit T3SS-mediated translocation | > 100 | 4.1 | >5.0 | IC50 [1, 10]: ≤ 25 µM; CC50 (in vitro; [11]): ≥ 100 µM
CCN1CCOC(CC(=O)Nc2ccc(F)cc2)C1=O (stereo not drawn) [Compound 4, 2-(4-ethyl-3-oxomorpholin-2-yl)-N-(4-fluorophenyl)acetamide] | 13 | 4.2 | 6 | > 100 | failed to inhibit T3SS-mediated translocation | 100 | 3.9 | 6.2 | IC50 [1, 10]: ≤ 25 µM; CC50 (in vitro; [11]): ≥ 100 µM
Cc1ccc(NC(=O)/C=C/C(=O)OCC(F)(F)C(F)F)cc1 [Compound 5, (E)-2,2,3,3-tetrafluoropropyl 4-oxo-4-(p-tolylamino)but-2-enoate] | 22 | 2.6 | – | – | – | 28 | 4.5 | 1.3 | –
NC(=O)/C=C/C(=O)Nc1ccccc1 [Compound 6, N1-phenylfumaramide] | 19 | 1.5 | – | – | – | 35 | 3.6 | 1.8 | –
NC(=O)/C=C/C(=O)Nc1ccccc1Cl [Compound 7, N1-(2-chlorophenyl)fumaramide] | 17 | 1.5 | – | – | – | 40 | 4.7 | 2.4 | –
Cc1ccc(N2C(=O)C3C(C2=O)C2(C)C=CC3(C)O2)c(C)c1 (stereo not drawn) [Compound 8, 2-(2,4-dimethylphenyl)-4,7-dimethyl-3a,4,7,7a-tetrahydro-1H-4,7-epoxyisoindole-1,3(2H)-dione] | 15 | 3.1 | 103 | > 100 | failed to inhibit T3SS-mediated translocation | > 100 | 9.2 | >6.7 | IC50 [1, 10]: ≤ 25 µM; CC50 (in vitro; [11]): ≥ 100 µM
CCc1ccc2nc(N3C(=O)C(O)=C(C(=O)c4cccs4)C3c3ccc([N+](=O)[O-])cc3)sc2c1 (stereo not drawn) [Compound 10, 1-(6-ethylbenzo[d]thiazol-2-yl)-3-hydroxy-5-(4-nitrophenyl)-4-(thiophene-2-carbonyl)-1H-pyrrol-2(5H)-one] | 3 | 1.8 | 4.1 | – | – | 16 | 3.8 | 5.3 | –
CN1CCN(C(=S)c2ccc(N(C)C)cc2)CC1 [Compound 11, (4-(dimethylamino)phenyl)(4-methylpiperazin-1-yl)methanethione] | 19 | 1 | 19 | – | – | 18 | 22 | 0.9 | –
pseudolipasin [reference compound] | – | – | – | – | rescued CHO cells from ExoU toxicity with a similar potency | – | – | – | –
